In article PMC10600247, “Impact of C- and N-terminal protection on the stability, metal chelation and antimicrobial properties of calcitermin” (Scientific Reports, 2023):
Residues, ends and D or L forms follow the SMILES beside them.

How the values were obtained:
in vitro = details: human, pH 7.4
Method: Each peptide (C = 1·10^–4 M) and metal complex (metal:ligand ratio 1:1) was incubated in a sample containing 1 ml of human plasma (obtained as a pool of 40 individuals from the University Hospital of Ferrara) and 1 ml of ammonium acetate buffer (pH 7.4) at 37 °C. L-phenylalaninol is added as internal standard. At regular time intervals, 200 μl aliquots were taken and enzymatic reaction was blocked by adding 300 μl of HClO4 0.5 M. The sample was then centrifugated for 6 min at 14,000 × g. The supernatant was then filtered and analysed by HPLC. The analytical column was an Agilent Poroshell 120 SB-C18 (4.6 × 100 mm, 2.7 μm, pore size 120 Å). Flow rate = 0.5 ml/min, mobile phase H2O + 0.1% v/v TFA, linear gradient from 0 to 60% of acetonitrile + 0.1% v/v TFA over 30 min for the elution of peptides, temperature 25 °C, detection wavelength 210 nm. […] Informed consent was obtained from all subjects and/or their legal guardian(s) prior to the donation of blood samples. All experimental protocols were approved by the National Research and Research Transversal Processes boards at University of Ferrara. All methods were carried out in accordance with relevant guidelines and regulations.

[1] = Source text: Stability constants for proton and metal complexes were obtained from pH-metric titration curves registered at T = 298 K and ionic strength 0.1 M (KCl). The potentiometric apparatus was previously described. Solutions were titrated with 0.1 M carbonate-free KOH. The electrode was daily calibrated for hydrogen ion concentration by titrating HNO3 with the standard base solution, under the same experimental conditions as above. The asymmetry potential and the slope of the electrode couple were computed by means of […][41] and Glee[42] programs. The purities and exact concentrations of the ligand solutions were determined by the Gran method. The […][44] program was employed for the overall formation constant (β) calculations, referred to the following equilibrium equation: pM + qL + rH ⇆ MpLqHr (charges omitted; p is 0 in the case of ligand protonation; r can be negative). The computed standard deviations (referring to random errors only) were given by the program itself and are shown in parentheses as uncertainties on the last significant figure. Hydrolysis constants for metal ions were taken from the literature[45],[46]. The distribution and competition diagrams were computed using the HYSS program.
1. Wild-type calcitermin: thermodynamic data
Wild-type calcitermin (WT) has been previously investigated by our research group in aqueous solutions and ionic medium NaClO4.1 For the sake of comparison, potentiometric studies of WT and its copper and zinc complexes have been performed in a different ionic medium (KCl 0.1 M). The study of the speciation under different experimental conditions, changing ionic medium and metal-ligand ratio, is essential to comprehensively describe the thermodynamics of calcitermin, which is usually found in multicomponent media like biological fluids.
Table S1. Equilibrium constants for protonation of WT and its Cu2+ and Zn2+ complex formation at T = 298 K and I = 0.1 M (KCl). Values in parentheses are standard deviations on the last significant figure.

[2] = T = 298 K, I = 0.1 M (KCl), charges omitted
[3] = Table S1, T = 298 K, I = 0.1 M (KCl), charges omitted

| SMILES | half-life (in vitro) [min] | pKa [CuH2L] [1] | pKa [CuH-1L] [1] | pKa [CuHL] [1] | pKa [CuL] [1] | pKa [ZnHL] [1] | pKa [ZnL] [1] | logβ [CuH2L] [1, 2] | logβ [CuH-1L] [1, 2] | logβ [CuHL] [1, 2] | logβ [CuL] [1, 2] | logβ [ZnHL] [1, 2] | logβ [ZnL] [1, 2] | pKa [ZnH2L] [1] | logβ [ZnH2L] [1, 2] | logβ [CuH3L] [1, 2] | logβ [CuH4L] [1, 2] | logβ [CuH5L] [1, 2] | logβ [ZnH3L] [1, 2] | logβ [ZnH4L] [1, 2] | also measured |
| --- | --- | --- | --- | --- | --- | --- | --- | --- | --- | --- | --- | --- | --- | --- | --- | --- | --- | --- | --- | --- | --- |
| CC[C@H](C)[C@H](NC(=O)[C@H](C)NC(=O)[C@@H](NC(C)=O)C(C)C)C(=O)N[C@@H](C)C(=O)N[C@@H](CC(C)C)C(=O)N[C@@H](CCCCN)C(=O)N[C@@H](C)C(=O)N[C@@H](C)C(=O)N[C@@H](Cc1c[nH]cn1)C(=O)N[C@@H](Cc1ccc(O)cc1)C(=O)N[C@@H](Cc1c[nH]cn1)C(=O)N[C@H](C(=O)N[C@@H](Cc1c[nH]cn1)C(=O)N[C@@H](CCCCN)C(=O)N[C@@H](CCC(=O)O)C(=O)O)[C@@H](C)O [L1, Ac-VAIALKAAHYHTHKE] (Ac-VAIALKAAHYHTHKE-OH) | 135 | 4.40 | 6.88 | 5.38 | 6.59 | 5.80 | 7.33 | 18.21(3) | 1.84(3) | 13.81(2) | 8.43(2) | 11.00(5) | 5.21(2) | – | – | – | – | – | – | – | – |
| CC[C@H](C)[C@H](NC(=O)[C@H](C)NC(=O)[C@@H](NC(C)=O)C(C)C)C(=O)N[C@@H](C)C(=O)N[C@@H](CC(C)C)C(=O)N[C@@H](CCCCN)C(=O)N[C@@H](C)C(=O)N[C@@H](C)C(=O)N[C@@H](Cc1c[nH]cn1)C(=O)N[C@@H](Cc1ccc(O)cc1)C(=O)N[C@@H](Cc1c[nH]cn1)C(=O)N[C@H](C(=O)N[C@@H](Cc1c[nH]cn1)C(=O)N[C@@H](CCCCN)C(=O)N[C@@H](CCC(=O)O)C(N)=O)[C@@H](C)O [L2, Ac-VAIALKAAHYHTHKE-NH2] (Ac-VAIALKAAHYHTHKE-NH2) | ~68 | 5.49 | 9.44 | 6.30 | 6.70 | 7.63 | 8.93 | 23.06(4) | 4.57(6) | 17.57(5) | 11.27(7) | 14.15(4) | 6.52(5) | 6.14 | 20.29(6) | – | – | – | – | – | pKa [CuH-2L] [1]: 9.91; pKa [ZnH-1L] [1]: 9.44 |
| CC[C@H](C)[C@H](NC(=O)[C@H](C)NC(=O)[C@@H](N)C(C)C)C(=O)N[C@@H](C)C(=O)N[C@@H](CC(C)C)C(=O)N[C@@H](CCCCN)C(=O)N[C@@H](C)C(=O)N[C@@H](C)C(=O)N[C@@H](Cc1c[nH]cn1)C(=O)N[C@@H](Cc1ccc(O)cc1)C(=O)N[C@@H](Cc1c[nH]cn1)C(=O)N[C@H](C(=O)N[C@@H](Cc1c[nH]cn1)C(=O)N[C@@H](CCCCN)C(=O)N[C@@H](CCC(=O)O)C(N)=O)[C@@H](C)O [L3, VAIALKAAHYHTHKE-NH2] (H-VAIALKAAHYHTHKE-NH2) | ~20 | 7.75 | – | 9.53 | 10.01 | 9.47 | – | 33.11(2) | 5.82(4) | 25.36(3) | 15.83(5) | 19.40(5) | 9.94(4) | 8.65 | 28.06(4) | 40.00(3) | 46.21(2) | 51.38(2) | 35.75(6) | 43.07(3) | pKa [CuH3L] [1]: 6.90; pKa [CuH4L] [1]: 6.21; pKa [CuH5L] [1]: 5.16; pKa [ZnH3L] [1]: 7.69; pKa [ZnH4L] [1]: 7.32; pKa [ZnH5L] [1]: 5.6; logβ [ZnH5L] [1, 2]: 48.7(1) |
| CC[C@H](C)[C@H](NC(=O)[C@H](C)NC(=O)[C@@H](N)C(C)C)C(=O)N[C@@H](C)C(=O)N[C@@H](CC(C)C)C(=O)N[C@@H](CCCCN)C(=O)N[C@@H](C)C(=O)N[C@@H](C)C(=O)N[C@@H](Cc1c[nH]cn1)C(=O)N[C@@H](Cc1ccc(O)cc1)C(=O)N[C@@H](Cc1c[nH]cn1)C(=O)N[C@H](C(=O)N[C@@H](Cc1c[nH]cn1)C(=O)N[C@@H](CCCCN)C(=O)N[C@@H](CCC(=O)O)C(=O)O)[C@@H](C)O [WT, VAIALKAAHYHTHKE, reference compound] (H-VAIALKAAHYHTHKE-OH) | 18 ± 3 | – | – | – | – | – | – | 33.77(4) | 6.90(5) | 26.20(4) | 16.83(5) | 20.11(6) | 10.35(8) | – | 28.59(5) | 40.77(4) | 46.97(3) | 52.07(3) | 36.47(5) | 43.55(3) | logβ [CuH6L] [1, 2]: 56.40(6); logβ [CuH-3L] [1, 2]: -14.19(5); logβ [ZnH5L] [1, 2]: 49.30(8); logβ [ZnH-1L] [1, 2]: -0.2(1); logβ [ZnH-2L] [1, 2]: -10.8(1); logK, line of [CuH2L] [1, 3]: 7.00; logK, line of [CuH3L] [1, 3]: 6.21; logK, line of [CuH4L] [1, 3]: 5.09; logK, line of [CuH5L] [1, 3]: 4.34; logK, line of [CuH-1L] [1, 3]: 9.93; logK, line of [CuHL] [1, 3]: 7.58; logK, line of [CuL] [1, 3]: 9.37; logK, line of [ZnH2L] [1, 3]: 7.87; logK, line of [ZnH3L] [1, 3]: 7.08; logK, line of [ZnH4L] [1, 3]: 5.75; logK, line of [ZnH-1L] [1, 3]: 10.5; logK, line of [ZnH-2L] [1, 3]: 10.7; logK, line of [ZnHL] [1, 3]: 8.48; logK, line of [ZnL] [1, 3]: 9.77 |
